Reference: paper PMC4026384, “Antibacterial Activity of THAM Trisphenylguanide against Methicillin-Resistant Staphylococcus aureus” (PLoS ONE, 2014)
In brackets after ≈: the same amount, converted by molar mass. Like-named read-outs stand apart in the source and are kept apart here.

Experiments:
[1] = system: Acinetobacter baumannii ATCC 19606; assay: Minimum inhibitory concentration (microdilution); assay type: cell-based; conditions: Acinetobacter baumannii, ATCC19606; A. baumannii ATCC 19606; LB media; median of at least 3 determinations; read-out: MIC
MRSA strain LAC, USA300 = assay: Minimum bactericidal concentration; assay type: cell-based, Staphylococcus aureus; conditions: MHB, median, 3-log reduction of viable bacteria
Experimental: Minimum inhibitory concentration (MIC) values were determined for those compounds showing the most antibacterial activity in the bacterial viability assays (see Supplemental Materials) against each of the strains of bacteria using a microdilution method in 96 well plates with LB media according to guidelines published by the British Society for Antimicrobial Chemotherapy. Minimum bactericidal concentrations (MBC) were determined by plating 10 µL and 100 µL from each well showing no signs of growth after overnight incubation of the MIC plates and determining the minimum concentration showing a 3-log reduction of viable bacteria. MIC and MBC were also determined in cation-adjusted Mueller-Hinton broth (Hardy Diagnostics, Santa Maria, CA) for some compounds and strains.

P. aeruginosa PA01 = assay: Bacterial viability assay; assay type: cell-based, Pseudomonas aeruginosa; conditions: Pseudomonas aeruginosa, 1 h, one hour in PBS, CFU, ± SEM
Experimental: (§1) Supplementary file pone.0097742.s003.doc: Table S1 Bacterial viability assays. Bacteria were grown at 37°C to mid-log phase (OD600 ∼0.4). The bacteria were diluted to approximately 10^4 to 10^5 colony forming units (CFU) per milliliter and added to a solution of phosphate buffered saline (PBS, 16 mM phosphate, 0.14 M NaCl, pH 7.2) containing the compound at varied concentrations. Samples were incubated at 37°C for one hour and then plated on Luria Bertani (LB) agar at appropriate dilutions in PBS. The plates were incubated overnight at 37°C and colonies enumerated the following day. IC50s were calculated from graphs of CFU as a function of compound concentration. Chlorhexidine was used as a positive control. […] (DOC) Click here for additional data file.
(§2) Bacterial viability assays. Bacteria were grown at 37°C to mid-log phase (OD600 ~0.4). The bacteria were diluted to approximately 10^4 to 10^5 colony forming units (CFU) per milliliter and added to a solution of phosphate buffered saline (PBS, 16 mM phosphate, 0.14 M NaCl, pH 7.2) containing the compound at varied concentrations. Samples were incubated at 37°C for one hour and then plated on Luria Bertani (LB) agar at appropriate dilutions in PBS. The plates were incubated overnight at 37°C and colonies enumerated the following day. IC50s were calculated from graphs of CFU as a function of compound concentration. Chlorhexidine was used as a positive control.

E. faecalis MSU#10 = assay: Bacterial viability assay; assay type: cell-based, Enterococcus faecalis; conditions: Enterococcus faecalis, 1 h
Experimental: as §1, §2

E. faecalis V583 = assay: Bacterial viability assay; assay type: cell-based, Enterococcus faecalis; conditions: Enterococcus faecalis, 1 h, one hour in PBS, CFU, ± SEM
Experimental: as §1, §2

S. aureus RN4220 = assay: Bacterial viability assay; assay type: cell-based, Staphylococcus aureus; conditions: Staphylococcus aureus, 1 h, one hour in PBS, CFU, ± SEM
Experimental: (§3) Supplementary file pone.0097742.s003.doc: Table S1 Bacterial viability assays. Bacteria were grown at 37°C to mid-log phase (OD600 ∼0.4). The bacteria were diluted to approximately 10^4 to 10^5 colony forming units (CFU) per milliliter and added to a solution of phosphate buffered saline (PBS, 16 mM phosphate, 0.14 M NaCl, pH 7.2) containing the compound at varied concentrations. Samples were incubated at 37°C for one hour and then plated on Luria Bertani (LB) agar at appropriate dilutions in PBS. The plates were incubated overnight at 37°C and colonies enumerated the following day. IC50s were calculated from graphs of CFU as a function of compound concentration. Chlorhexidine was used as a positive control. Included are those guanide (G), biguanide (BG), phenylguanide (ΦG) compounds that had some antibacterial activity in an initial screen at 30 and 100 µM, as well as their and parent amines. Compounds synthesized from 1,4-butanediamine, 1,6-hexanediamine, trisethylaminomelamine, trisbutylaminomelamine, and the dendrimer PAMAM (G0) were not active against E. coli, P aeruginosa, or S. aureus so they were not tested against the remaining bacteria (data not shown). (DOC) Click here for additional data file.
as §3, with “Bacterial” for “Supplementary file pone.0097742.s003.doc: Table S1 Bacterial”, “~0.4).” for “∼0.4).”, “μM,” for “µM,”, “shown).” for “shown). (DOC) Click here for additional data file.”

MRSA USA300 = assay: Bacterial viability assay; assay type: cell-based, Staphylococcus aureus; conditions: Staphylococcus aureus, 1 h, one hour in PBS, CFU, ± SEM
Experimental: as §1, §2

[2] = system: HaCaT human keratinocytes; assay: Cell toxicity assay (MTS); assay type: cell-based
[3] = system: human breast cancer cell line MDA-MB-231; assay: Cell toxicity assay (MTS); assay type: cell-based; conditions: MDA-231
Balb/c mice = assay: In vivo toxicity study (serum chemistry and enzyme levels); design: species or system mouse; conditions: i.p. 0.1 ml of 10, 50, 100 µM, blood two hours post injection, versus mock-treated control
Experimental: THAM-3ΦG was chosen for the in vivo challenge experiments, because it had the best combination of antibacterial activity and low toxicity (Tables 1–3). In vivo toxicity studies were carried out prior to the start of experiments in mice challenged with MRSA. Groups of three Balb/c mice each were injected i.p. with 0.1 ml of 0, 10, 50, and 100 µM THAM-3ФG in PBS. The highest in vivo dose represented 0.36 mg/kg. Blood was drawn from the mice at two hours post injection and submitted for a standard panel of serum chemistry and enzyme levels. The chemistry and enzyme levels were not elevated for any of the concentrations tested compared to the mock-treated control group (data not shown).

Row | Compound | MIC [1] | MBC (MRSA strain LAC, USA300) | IC50 (P. aeruginosa PA01) | IC50 (E. faecalis MSU#10) | IC50 (E. faecalis V583) | IC50 (S. aureus RN4220) | IC50 (MRSA USA300) | Relative to chlorhexidine (factor by which cytotoxicity was reduced) [2] | Relative to chlorhexidine (factor by which cytotoxicity was reduced) [3] | IC50 (E. faecalis MSU#10; E. faecalis MSU#10, one hour in PBS, CFU, ± SEM, read-out: IC50) | serum chemistry and enzyme levels (Balb/c mice)
1 | [H]/N=C(\N/C(=N/[H])NCCCCCCNC(=N)NC(=N)Nc1ccc(Cl)cc1)Nc1ccc(Cl)cc1 [Chlorhexidine, chlorhexidine, reference compound] | 16 µg/mL (≈ 31.7 µM) | 0.89 µg/mL (≈ 1.76 µM) | 2.6 ± 0.5 µM | 14 ± 6 µM | 16 ± 6 µM | 0.86 ± 0.21 µM | 13 µM | – | – | – | –
2 | N=C(NCCCCCCNc1nc(NCCCCCCNC(=N)Nc2ccccc2)nc(NCCCCCCNC(=N)Nc2ccccc2)n1)Nc1ccccc1 [THAM-3ΦG, Trishexylaminomelamine trisphenylguanide] | > 256 µg/mL | 1 µg/mL (≈ 1.29 µM) | 4.5 ± 2.5 µM | – | 65 ± 1 µM | 1.7 ± 0.9 µM | 3.9 ± 0.5 µM | 7.1 | 3.0 | 2.8 ± 0.6 µM | not elevated
